Assay results as given in patent US4303785A, “Antitumor anthracycline antibiotics” (priority 1978, dated 1981).
≈ marks a conversion by molar mass, not a printed value. Where two headings read alike, the source gives them in different places.

How the values were obtained:
[1] = test system: Bacillus cereus ATCC 10702; assay: Minimum inhibitory concentration, broth dilution method (Table 3); assay type: cell-based
Description: (§1) To illustrate such activity, minimum inhibitory concentrations (as determined by the broth dilution method) of representative compounds are shown in Table 3.

Bacillus megaterium APF = assay: as above; assay type: cell-based
Description: as §1

[2] = test system: Bacillus subtillis NRRLB-558; assay: as above; assay type: cell-based; conditions: for Minimum Inhibitory Concentration (MIC): Bacillus subtillis NRRLB-558
Description: as §1

Candida albicans = assay: as above; assay type: cell-based
Description: as §1

[3] = test system: Corynebacterium bovis 1810; assay: as above; assay type: cell-based
Description: as §1

Escherichia coli NIHJ = assay: as above; assay type: cell-based
Description: as §1

[4] = test system: Micrococcus flavus FDA 16; assay: as above; assay type: cell-based; conditions: for Minimum Inhibitory Concentration (MIC): Micrococcus flavus FDA 16
Description: as §1

[5] = test system: Mycobacterium smegmatis ATCC 607; assay: as above; assay type: cell-based
Description: as §1

[6] = test system: Pseudomonas aeruginosa A3; assay: as above; assay type: cell-based; conditions: for Minimum Inhibitory Concentration (MIC): Pseudomonas aeruginosa A3
Description: as §1

Sarcina lutea PCI 1001 = assay: as above; assay type: cell-based
Description: as §1

Staph. aureus FDA 209P = assay: as above; assay type: cell-based
Description: as §1

Staph. aureus Smith = assay: as above; assay type: cell-based
Description: as §1

L1210 leukemia cells = assay: Growth inhibitory effect on L1210 cells in culture (Table 4); assay type: cell-based; conditions: for inhibition at 0.1 µg/mL / inhibition at 0.5 µg/mL: Mus musculus, read-out: Inhibition Rate (growth); for inhibition at 0.1 µg/mL: L1210, 0.1 μg./ml.; for inhibition at 0.5 µg/mL: L1210, 0.5 μg./ml.
Protocol: For example, L1210 cells (5×10^4 cells/ml.) were inoculated in RPMI 1640 medium (Roswell Park Memorial Institute 1640) containing 20% calf serum and cultivated at 37° C. in the presence of 0.1 and 0.5 μg./ml. of the test compounds in a CO2 incubator.

L1210 cells = assay: Inhibition of 14C-uridine and 14C-thymidine incorporation (nucleic acid synthesis) in L1210 cells in culture (Table 5); assay type: cell-based; conditions: 60 min. at 37° C.; for IC50: Mus musculus, L1210, 1 h
Protocol: The effect of the tetrahydropyranyl ether derivatives of formula I' on nucleic acid synthesis was examined as follows: […]
1×10^5 cells/ml. of L1210 cells were suspended in RPMI medium containing 10% calf serum, pre-cultivated at 37° C. for 1 to 2 hours in a CO2 incubator and then the test compounds were added to the medium at various concentrations. After 15 min. of incubation, ^14 C-uridine (0.05 μCi/ml.) or ^14 C-thymidine (0.05 μCi/ml.) was added and incubated at 37° C. for 60 min. Trichloroacetic acid (TCA) (10%) was added to the incubation medium to stop the reaction and precipitate the acid-insoluble materials, and then the precipitate was washed three times with 5 to 10% […]. The radioactivity was measured and expressed as 50% inhibition concentration of incorporation.

L1210 leukemia = assay: Antitumor activity in BDF1 mice inoculated with L1210 leukemia cells (Table 6); assay type: in vivo; conditions: once daily for 10 days
Description: As an example, BDF1 mice were inoculated intraperitoneally with 1×10^6 cells/mouse of L1210 leukemia cells.

[7] = test system: NADPH-cytochrome P450 reductase; assay: Stability on rat hepatic NADPH-cytochrome P450 reductase: 7-deoxyaglycone formed (Table 7); assay type: in vitro ADME; conditions: 25° C., 25 min., nitrogen; substrate 0.1 mM, NADPH 0.2 mM, enzyme 4.6 μg./ml, pH 8.0
Protocol: C. The marked antitumor effects seen from A and B above were confirmed by the stability of the test compounds on the inactivation by hepatic NADPH-cytochrome P450 reductase. Specifically, NADPH-cytochrome P450 reductase purified from rat liver homogenate was incubated with the tetrahydropyranyl ether derivatives of formula I' at 25° C. for 25 min. in nitrogen gas phase, and the incubation product formed, 7-deoxyaglycone, was determined as shown in Table 7.

[8] = thymidine, read-out: 50% Inhibition Concentration of 14C-Thymidine Incorporation
[9] = uridine, read-out: 50% Inhibition Concentration of 14C-Uridine Incorporation

Row | SMILES | Minimum Inhibitory Concentration (MIC) [1] | Minimum Inhibitory Concentration (MIC) (Bacillus megaterium APF) | Minimum Inhibitory Concentration (MIC) [2] | Minimum Inhibitory Concentration (MIC) (Candida albicans) | Minimum Inhibitory Concentration (MIC) [3] | Inhibition Rate (growth) (L1210 leukemia cells; 0.1 μg./ml.) | Inhibition Rate (growth) (L1210 leukemia cells; 0.5 μg./ml.) | 50% Inhibition Concentration of 14C-Thymidine Incorporation (L1210 cells; thymidine) | 50% Inhibition Concentration of 14C-Uridine Incorporation (L1210 cells; uridine) | Antitumor Activity (T/C, prolongation rate of survival day) (L1210 leukemia; 0.15 mg./kg./day i.p.) | Antitumor Activity (T/C, prolongation rate of survival day) (L1210 leukemia; 0.3 mg./kg./day i.p.) | Antitumor Activity (T/C, prolongation rate of survival day) (L1210 leukemia; 0.6 mg./kg./day i.p.) | Antitumor Activity (T/C, prolongation rate of survival day) (L1210 leukemia; 1.25 mg./kg./day i.p.) | Antitumor Activity (T/C, prolongation rate of survival day) (L1210 leukemia; 2.5 mg./kg./day i.p.) | Antitumor Activity (T/C, prolongation rate of survival day) (L1210 leukemia; 5 mg./kg./day i.p.) | Product (7-Deoxyaglycone) [7] | inhibition at 0.1 µg/mL (L1210 leukemia cells) | inhibition at 0.5 µg/mL (L1210 leukemia cells) | IC50 (L1210 cells; [8]) | IC50 (L1210 cells; [9]) | also measured
1 | COc1cccc2c1C(=O)c1c(O)c3c(c(O)c1C2=O)C[C@@](O)(C(C)=O)C[C@@H]3O[C@H]1C[C@H](N)[C@H](OC2CCCCO2)[C@H](C)O1 (single isomer, unassigned; isomer b) [4'-O-PDb, 4'-O-tetrahydropyranyl daunomycin (isomer b)] | 6.25 µg/mL | 3.12 µg/mL | 1.56 µg/mL | 25 µg/mL | 0.78 µg/mL | 74.6% | 88.8% | 0.32 µg/mL | 0.20 µg/mL | 90% | 103% | 115% | 122% | 256% | > 320% | 46.6 nmoles/tube |  |  |  |  | Minimum Inhibitory Concentration (MIC) (Escherichia coli NIHJ): > 100 µg/mL; Minimum Inhibitory Concentration (MIC) [4]: 1.56 µg/mL; Minimum Inhibitory Concentration (MIC) [5]: 6.25 µg/mL; Minimum Inhibitory Concentration (MIC) [6]: > 50 µg/mL; Minimum Inhibitory Concentration (MIC) (Sarcina lutea PCI 1001): 0.39 µg/mL; Minimum Inhibitory Concentration (MIC) (Staph. aureus FDA 209P): 6.25 µg/mL; Minimum Inhibitory Concentration (MIC) (Staph. aureus Smith): 3.12 µg/mL
2 | COc1cccc2c1C(=O)c1c(O)c3c(c(O)c1C2=O)C[C@@](O)(C(=O)COC1CCCCO1)C[C@@H]3O[C@H]1C[C@H](N)[C@H](OC2CCCCO2)[C@H](C)O1 (single isomer, unassigned; isomer a) [4',14-di-O-PAa, 4',14-bis(O-tetrahydropyranyl)adriamycin (isomer a)] |  |  |  |  |  |  |  |  |  | 96% | 103% | 96% | 109% | 115% | 154% | 13.1 nmoles/tube | 37.5% | 80.8% | 0.55 µg/mL (≈ 0.773 µM) | 0.23 µg/mL (≈ 0.323 µM) | 
3 | COc1cccc2c1C(=O)c1c(O)c3c(c(O)c1C2=O)C[C@@](O)(C(=O)CO)C[C@@H]3O[C@H]1C[C@H](N)[C@H](OC2CCCCO2)[C@H](C)O1 (single isomer, unassigned; isomer a) [4'-O-PAa, 4'-O-tetrahydropyranyl adriamycin (isomer a)] |  |  |  |  |  |  |  |  |  | 127% | 120% | 187% | 180% | 173% |  |  | 65.9% | 81.1% | 0.37 µg/mL (≈ 0.59 µM) | 0.2 µg/mL (≈ 0.319 µM) | MIC ([1]; ATCC10702): 6.25 µg/mL (≈ 9.96 µM); MIC (Bacillus megaterium APF; Priestia megaterium): 3.12 µg/mL (≈ 4.97 µM); MIC ([2]; Bacillus, NRRLB558, Bacillus subtillis NRRLB-558): 3.12 µg/mL (≈ 4.97 µM); MIC (Candida albicans): > 100 µg/mL; MIC [3]: 3.12 µg/mL (≈ 4.97 µM); MIC (Escherichia coli NIHJ): > 100 µg/mL; MIC ([4]; Micrococcus flavus, FDA16, Micrococcus flavus FDA 16): 3.12 µg/mL (≈ 4.97 µM); MIC ([5]; Mycolicibacterium smegmatis, ATCC607): 100 µg/mL (≈ 159 µM); MIC ([6]; Pseudomonas aeruginosa, A3, Pseudomonas aeruginosa A3): > 100 µg/mL; MIC (Sarcina lutea PCI 1001; Micrococcus luteus, PCI1001): 0.78 µg/mL (≈ 1.24 µM); MIC (Staph. aureus FDA 209P; Staphylococcus aureus, FDA209P): 6.25 µg/mL (≈ 9.96 µM); MIC (Staph. aureus Smith; Staphylococcus aureus): 6.25 µg/mL (≈ 9.96 µM)
4 | COc1cccc2c1C(=O)c1c(O)c3c(c(O)c1C2=O)C[C@@](O)(C(=O)CO)C[C@@H]3O[C@H]1C[C@H](N)[C@H](OC2CCCCO2)[C@H](C)O1 (single isomer, unassigned; isomer b) [4'-O-PAb, 4'-O-tetrahydropyranyl adriamycin (isomer b)] | 6.25 µg/mL | 3.12 µg/mL | 3.12 µg/mL | > 50 µg/mL | 3.12 µg/mL | 78.1% | 92.9% | 0.50 µg/mL | 0.24 µg/mL | 113% | 160% | 293% | > 373% | > 360% | > 375% |  |  |  |  |  | Minimum Inhibitory Concentration (MIC) (Escherichia coli NIHJ): > 100 µg/mL; Minimum Inhibitory Concentration (MIC) [4]: 3.12 µg/mL; Minimum Inhibitory Concentration (MIC) [5]: 100 µg/mL; Minimum Inhibitory Concentration (MIC) [6]: > 100 µg/mL; Minimum Inhibitory Concentration (MIC) (Sarcina lutea PCI 1001): 0.78 µg/mL; Minimum Inhibitory Concentration (MIC) (Staph. aureus FDA 209P): 6.25 µg/mL; Minimum Inhibitory Concentration (MIC) (Staph. aureus Smith): 6.25 µg/mL
5 | COc1cccc2c1C(=O)c1c(O)c3c(c(O)c1C2=O)C[C@@](O)(C(=O)COC1CCCCO1)C[C@@H]3O[C@H]1C[C@H](N)[C@H](O)[C@H](C)O1 (stereo partly drawn) [Example 14-O-PA, 14-O-tetrahydropyranyl adriamycin] |  |  |  |  |  |  |  |  |  | 103% | 110% | 113% | 126% | 130% | 142% | 18.4 nmoles/tube | 7.6% | 58.3% | 0.42 µg/mL (≈ 0.669 µM) | 0.17 µg/mL (≈ 0.271 µM) | 
6 | COc1cccc2c1C(=O)c1c(O)c3c(c(O)c1C2=O)C[C@@](O)(C(=O)COC1CCCCO1)C[C@@H]3O[C@H]1C[C@H](N)[C@H](OC2CCCCO2)[C@H](C)O1 (single isomer, unassigned; isomer b) [4',14-di-O-PAb, 4',14-bis(O-tetrahydropyranyl)adriamycin (isomer b)] |  |  |  |  |  | 25.5% | 72.1% | 0.97 µg/mL | 0.24 µg/mL | 115% | 96% | 103% | 103% | 109% | 161% | 15.8 nmoles/tube |  |  |  |  | 
